Measurements reported in PubChem BioAssay (NCI).
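96-well plates; 48 h exposure; 5 concentrations. Endpoints by linear interpolation between flanking doses. Not reached: highest tested concentration assigned. The concentration for 50% growth inhibition is given as GI50. At the TGI there is no net growth.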

Tests used:
Assay in all cases: NCI-60 cell line screen, 48 h
786-0 renal = system: 786-0 renal
A498 renal = system: A498 renal
A549 NSCLC = system: A549 NSCLC
ACHN renal = system: ACHN renal
BT-549 breast = system: BT-549 breast
CAKI-1 renal = system: CAKI-1 renal
CCRF-CEM leukemia = system: CCRF-CEM leukemia
COLO 205 colon = system: COLO 205 colon
DU-145 prostate = system: DU-145 prostate
EKVX NSCLC = system: EKVX NSCLC
HCC-2998 colon = system: HCC-2998 colon
HCT-116 colon = system: HCT-116 colon
HCT-15 colon = system: HCT-15 colon
HL-60(TB) leukemia = system: HL-60(TB) leukemia
HOP-62 NSCLC = system: HOP-62 NSCLC
HOP-92 NSCLC = system: HOP-92 NSCLC
HS 578T breast = system: HS 578T breast
HT29 colon = system: HT29 colon
IGROV1 ovarian = system: IGROV1 ovarian
K-562 leukemia = system: K-562 leukemia
KM12 colon = system: KM12 colon
LOX IMVI melanoma = system: LOX IMVI melanoma
M14 melanoma = system: M14 melanoma
MALME-3M melanoma = system: MALME-3M melanoma
MCF7 breast = system: MCF7 breast
MDA-MB-231 breast = system: MDA-MB-231 breast
MDA-MB-435 = system: MDA-MB-435
MOLT-4 leukemia = system: MOLT-4 leukemia
NCI-H226 lung = system: NCI-H226 lung
NCI-H23 lung = system: NCI-H23 lung
NCI-H460 lung = system: NCI-H460 lung
NCI-H522 lung = system: NCI-H522 lung
NCI/ADR-RES ovarian = system: NCI/ADR-RES ovarian
OVCAR-3 ovarian = system: OVCAR-3 ovarian
OVCAR-4 ovarian = system: OVCAR-4 ovarian
OVCAR-5 ovarian = system: OVCAR-5 ovarian
OVCAR-8 ovarian = system: OVCAR-8 ovarian
PC-3 prostate = system: PC-3 prostate
RPMI-8226 leukemia = system: RPMI-8226 leukemia
RXF 393 renal = system: RXF 393 renal
SF-268 CNS = system: SF-268 CNS
SF-295 CNS = system: SF-295 CNS
SF-539 CNS = system: SF-539 CNS
SK-MEL-2 melanoma = system: SK-MEL-2 melanoma
SK-MEL-28 melanoma = system: SK-MEL-28 melanoma
SK-MEL-5 melanoma = system: SK-MEL-5 melanoma
SK-OV-3 ovarian = system: SK-OV-3 ovarian
SN12C renal = system: SN12C renal
SNB-19 CNS = system: SNB-19 CNS
SNB-75 CNS = system: SNB-75 CNS
SR leukemia = system: SR leukemia
SW-620 colon = system: SW-620 colon
T-47D breast = system: T-47D breast
TK-10 renal = system: TK-10 renal
U251 CNS = system: U251 CNS
UACC-257 melanoma = system: UACC-257 melanoma
UACC-62 melanoma = system: UACC-62 melanoma
UO-31 renal = system: UO-31 renal

In the case of `CCN(CC)c1ccc(/C=N/NC(=O)c2ccc(NS(C)(=O)=O)cc2)cc1`, the GI50 (786-0 renal) is reported as 0.714 µM, the TGI (786-0 renal) is reported as 6.48 µM and the GI50 (A498 renal) is reported as 6.09 µM. It also gave a TGI (A498 renal) of 41.3 µM, a GI50 (A549 NSCLC) of 2.43 µM and a TGI (A549 NSCLC) of over 100 µM. For the same compound, the GI50 (ACHN renal) was 0.656 µM, the TGI (ACHN renal) was 57.1 µM and the GI50 (BT-549 breast) was 0.847 µM. For the same compound, the TGI (BT-549 breast) was 11.2 µM, the GI50 (CAKI-1 renal) was 0.554 µM and the TGI (CAKI-1 renal) was over 47 µM. For the same compound, the GI50 (CCRF-CEM leukemia) was 0.301 µM, the TGI (CCRF-CEM leukemia) was over 100 µM and the GI50 (COLO 205 colon) was 0.643 µM. It also gave a TGI (COLO 205 colon) of 25.9 µM, a GI50 (DU-145 prostate) of 0.933 µM and a TGI (DU-145 prostate) of over 100 µM. The GI50 (EKVX NSCLC) was 1.01 µM, the TGI (EKVX NSCLC) was over 77 µM and the GI50 (HCC-2998 colon) was 0.704 µM. For the same compound, the TGI (HCC-2998 colon) was over 76.8 µM, the GI50 (HCT-116 colon) was 0.352 µM and the TGI (HCT-116 colon) was over 87.7 µM. It also gave a GI50 (HCT-15 colon) of 0.431 µM, a TGI (HCT-15 colon) of 49.1 µM and a GI50 (HL-60(TB) leukemia) of 0.294 µM. For the same compound, the GI50 (HOP-62 NSCLC) was 0.415 µM, the TGI (HOP-62 NSCLC) was 17.8 µM and the GI50 (HOP-92 NSCLC) was 0.457 µM. It also gave a TGI (HOP-92 NSCLC) of 40.3 µM, a GI50 (HS 578T breast) of 2.74 µM and a TGI (HS 578T breast) of 58.9 µM. It also gave a GI50 (HT29 colon) of 0.556 µM, a TGI (HT29 colon) of 18.7 µM and a GI50 (IGROV1 ovarian) of 0.716 µM. For the same compound, the TGI (IGROV1 ovarian) was over 100 µM, the GI50 (K-562 leukemia) was 0.595 µM and the TGI (K-562 leukemia) was over 100 µM. It also gave a GI50 (KM12 colon) of 0.907 µM, a TGI (KM12 colon) of over 66.8 µM and a GI50 (LOX IMVI melanoma) of 0.301 µM. The TGI (LOX IMVI melanoma) was 10.9 µM, the GI50 (M14 melanoma) was 0.463 µM and the TGI (M14 melanoma) was 3.42 µM. The GI50 (MALME-3M melanoma) was 1.17 µM, the TGI (MALME-3M melanoma) was 15.3 µM and the GI50 (MCF7 breast) was 0.598 µM. It also gave a TGI (MCF7 breast) of over 100 µM, a GI50 (MDA-MB-231 breast) of 0.546 µM and a TGI (MDA-MB-231 breast) of over 72.1 µM. For the same compound, the GI50 (MDA-MB-435) was 1.56 µM, the TGI (MDA-MB-435) was over 100 µM and the GI50 (MOLT-4 leukemia) was 0.433 µM. For the same compound, the TGI (MOLT-4 leukemia) was over 41.3 µM, the GI50 (NCI-H226 lung) was 1.21 µM and the TGI (NCI-H226 lung) was 38 µM. It also gave a GI50 (NCI-H23 lung) of 1.89 µM, a TGI (NCI-H23 lung) of over 100 µM and a GI50 (NCI-H460 lung) of 0.564 µM. For the same compound, the TGI (NCI-H460 lung) was 11.8 µM, the GI50 (NCI-H522 lung) was 0.418 µM and the TGI (NCI-H522 lung) was 15.1 µM. The GI50 (NCI/ADR-RES ovarian) was 3.86 µM, the TGI (NCI/ADR-RES ovarian) was over 100 µM and the GI50 (OVCAR-3 ovarian) was 0.231 µM. The TGI (OVCAR-3 ovarian) was 20.1 µM, the GI50 (OVCAR-4 ovarian) was 0.409 µM and the TGI (OVCAR-4 ovarian) was over 100 µM. The GI50 (OVCAR-5 ovarian) was 2.32 µM, the TGI (OVCAR-5 ovarian) was over 100 µM and the GI50 (OVCAR-8 ovarian) was 0.445 µM. For the same compound, the TGI (OVCAR-8 ovarian) was over 100 µM, the GI50 (PC-3 prostate) was 0.561 µM and the TGI (PC-3 prostate) was over 100 µM. For the same compound, the GI50 (RPMI-8226 leukemia) was 4.28 µM, the TGI (RPMI-8226 leukemia) was over 60.7 µM and the GI50 (RXF 393 renal) was 1.18 µM. For the same compound, the TGI (RXF 393 renal) was 4.78 µM, the GI50 (SF-268 CNS) was 0.383 µM and the TGI (SF-268 CNS) was over 49 µM. It also gave a GI50 (SF-295 CNS) of 0.828 µM, a TGI (SF-295 CNS) of 20.7 µM and a GI50 (SF-539 CNS) of 0.571 µM. The TGI (SF-539 CNS) was 11.3 µM, the GI50 (SK-MEL-2 melanoma) was 4.33 µM and the TGI (SK-MEL-2 melanoma) was 24.6 µM. The GI50 (SK-MEL-28 melanoma) was 0.498 µM, the TGI (SK-MEL-28 melanoma) was over 78.2 µM and the GI50 (SK-MEL-5 melanoma) was 1.67 µM. The TGI (SK-MEL-5 melanoma) was over 46.5 µM, the GI50 (SK-OV-3 ovarian) was 1.05 µM and the TGI (SK-OV-3 ovarian) was 27.7 µM. The GI50 (SN12C renal) was 0.978 µM, the TGI (SN12C renal) was over 100 µM and the GI50 (SNB-19 CNS) was 1.6 µM. It also gave a TGI (SNB-19 CNS) of over 79.6 µM, a GI50 (SNB-75 CNS) of 0.434 µM and a TGI (SNB-75 CNS) of 16.9 µM. The GI50 (SR leukemia) was 0.17 µM, the TGI (SR leukemia) was over 100 µM and the GI50 (SW-620 colon) was 0.693 µM. For the same compound, the TGI (SW-620 colon) was over 100 µM, the GI50 (T-47D breast) was 1.22 µM and the TGI (T-47D breast) was over 72.1 µM. For the same compound, the GI50 (TK-10 renal) was 1.74 µM, the TGI (TK-10 renal) was over 92.6 µM and the GI50 (U251 CNS) was 0.236 µM. It also gave a TGI (U251 CNS) of over 44.5 µM, a GI50 (UACC-257 melanoma) of 1.1 µM and a TGI (UACC-257 melanoma) of 21.2 µM. It also gave a GI50 (UACC-62 melanoma) of 0.526 µM, a TGI (UACC-62 melanoma) of 10.2 µM and a GI50 (UO-31 renal) of 0.58 µM. For the same compound, the TGI (UO-31 renal) was 24.4 µM.
